Source: ChEMBL document CHEMBL1141411, “Structural characterization of daptomycin analogues A21978C1-3(d-Asn11) produced by a recombinant Streptomyces roseosporus strain” (2007)
≈ marks a conversion by molar mass, not a printed value.

What follows are molecules tested on Staphylococcus aureus (assay: Antibacterial activity against Staphylococcus aureus 42 by broth microdilution method).
Type: functional

SMILES | MIC [µM]
CCCCCCCCCC(=O)N[C@@H](Cc1c[nH]c2ccccc12)C(=O)N[C@H](CC(N)=O)C(=O)N[C@@H](CC(=O)O)C(=O)N[C@@H]1C(=O)NCC(=O)N[C@@H](CCCN)C(=O)N[C@@H](CC(=O)O)C(=O)N[C@H](C)C(=O)N[C@@H](CC(=O)O)C(=O)NCC(=O)N[C@H](CO)C(=O)N[C@@H]([C@H](C)CC(=O)O)C(=O)N[C@@H](CC(=O)c2ccccc2N)C(=O)O[C@@H]1C | 0.6 (≈ 0.972 µg/mL)
CCC(C)CCCCCCCCC(=O)N[C@@H](Cc1c[nH]c2ccccc12)C(=O)N[C@H](CC(N)=O)C(=O)N[C@@H](CC(=O)O)C(=O)N[C@@H]1C(=O)NCC(=O)N[C@@H](CCCN)C(=O)N[C@@H](CC(=O)O)C(=O)N[C@H](C)C(=O)N[C@@H](CC(=O)O)C(=O)NCC(=O)N[C@H](CC(N)=O)C(=O)N[C@@H]([C@H](C)CC(=O)O)C(=O)N[C@@H](CC(=O)c2ccccc2N)C(=O)O[C@@H]1C (some centres undefined) | 0.15 (≈ 0.253 µg/mL)
CC(C)CCCCCCCCC(=O)N[C@@H](Cc1c[nH]c2ccccc12)C(=O)N[C@H](CC(N)=O)C(=O)N[C@@H](CC(=O)O)C(=O)N[C@@H]1C(=O)NCC(=O)N[C@@H](CCCN)C(=O)N[C@@H](CC(=O)O)C(=O)N[C@H](C)C(=O)N[C@@H](CC(=O)O)C(=O)NCC(=O)N[C@H](CC(N)=O)C(=O)N[C@@H]([C@H](C)CC(=O)O)C(=O)N[C@@H](CC(=O)c2ccccc2N)C(=O)O[C@@H]1C | 0.3 (≈ 0.503 µg/mL)
CCC(C)CCCCCCC(=O)N[C@@H](Cc1c[nH]c2ccccc12)C(=O)N[C@H](CC(N)=O)C(=O)N[C@@H](CC(=O)O)C(=O)N[C@@H]1C(=O)NCC(=O)N[C@@H](CCCN)C(=O)N[C@@H](CC(=O)O)C(=O)N[C@H](C)C(=O)N[C@@H](CC(=O)O)C(=O)NCC(=O)N[C@H](CC(N)=O)C(=O)N[C@@H]([C@H](C)CC(=O)O)C(=O)N[C@@H](CC(=O)c2ccccc2N)C(=O)O[C@@H]1C (some centres undefined) | 0.6 (≈ 0.997 µg/mL)
